From patent publication US20240360178A1, “MACROCYCLIC IMMUNOMODULATORS” (Bristol-Myers Squibb Company, priority 2021, published 2024)
Positions of bridges follow the written chain, without caps; N, C: chain ends. Non-standard residues stand in square brackets, D forms with d. Residues, ends and D or L forms follow the SMILES beside them. ξ: configuration not given here. *: point of attachment. Phe(4-COOH) = N[C@@H](Cc1ccc(C(=O)O)cc1)C(=O)O; Bip = N[C@@H](Cc1ccc(-c2ccccc2)cc1)C(=O)O; NMeF = CN[C@@H](Cc1ccccc1)C(=O)O; ξW = NC(Cc1c[nH]c2ccccc12)C(=O)O; 4Pal = N[C@@H](Cc1ccncc1)C(=O)O; Cha = N[C@@H](CC1CCCCC1)C(=O)O; Thr(3ξ) = CC(O)[C@H](N)C(=O)O; Carboxymethyl = O=C(O)C*; NMeA = CN[C@@H](C)C(=O)O; Orn = NCCC[C@H](N)C(=O)O; dNMeA = CN[C@H](C)C(=O)O; Dab = NCC[C@H](N)C(=O)O; Abu = CC[C@H](N)C(=O)O; Dap = NC[C@H](N)C(=O)O; Sar = CNCC(=O)O

Each compound was assayed against T1, human PD-1 (Jurkat-PD-1 cells) / PE-labeled human PD-L1-Ig (Homo sapiens, UniProt Q15116) (assay: Jurkat-PD-1 Cell Binding High-Content Screening Assay (CBA); Jurkat hPD1-PDL1 assay). Settings: Jurkat cell line over-expressing human PD-1; PE-labeled PD-L1-Ig 20 nM final; compound incubated 2 hours at 37° C.; read-out: Jurkat HPD1-PDL1 IC50.
T1 construct: expressed in transfected cells; host or cells: Jurkat cell line over-expressing human PD-1
Procedure, shortened: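 Cell binding by imaging: Jurkat line stably over-expressing human PD-1, compound pre-exposure 2 h at 37° C, PE-conjugated PD-L1-Ig 20 nM final, medium DMEM containing 10% FCS.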

T1 sequence (Q15116 25-288): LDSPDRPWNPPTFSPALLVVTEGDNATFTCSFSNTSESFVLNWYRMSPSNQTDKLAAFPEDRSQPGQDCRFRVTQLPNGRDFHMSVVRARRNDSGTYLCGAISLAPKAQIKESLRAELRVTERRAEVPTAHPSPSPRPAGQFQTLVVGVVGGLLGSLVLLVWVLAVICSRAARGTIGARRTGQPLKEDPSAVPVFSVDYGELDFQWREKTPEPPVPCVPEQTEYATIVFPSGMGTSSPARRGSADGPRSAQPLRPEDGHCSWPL

SMILES	IC50 [nM]
CC(C)C[C@@H]1NC(=O)[C@H](CC(N)=O)NC(=O)CN(C)C(=O)[C@H](CCCNC(=N)N)NC(=O)[C@H](C(C)C)NC(=O)[C@H](Cc2ccc(-c3ccccc3)cc2)NC(=O)[C@H](C(C)C)NC(=O)C(Cc2c[nH]c3ccccc23)NC(=O)[C@H](CC(=O)O)NC(=O)[C@H](Cc2ccc(O)cc2)NC(=O)[C@H](Cc2ccccc2)NC(=O)CSC[C@@H](C(=O)NCC(N)=O)NC(=O)[C@H](CO)NC(=O)[C@H](C(C)C)NC1=O (stereo partly shown) [Example 1229] ({CH2CO}-FYD[ξW]V[Bip]VR[Sar]NLVSCG-NH2; thioether N-14)	440
CC(C)C[C@@H]1NC(=O)[C@H](Cc2c[nH]c3ccccc23)NC(=O)[C@H](CC(=O)O)NC(=O)[C@H](Cc2ccc(O)cc2)NC(=O)[C@H](Cc2ccccc2)NC(=O)CSC[C@@H](C(=O)NCC(N)=O)NC(=O)[C@H](CO)NC(=O)[C@H](C(C)C)NC(=O)[C@H](CC(C)C)NC(=O)[C@H](CC(N)=O)NC(=O)CN(C)C(=O)[C@H](C)N(C)C(=O)[C@H](C(C)C)NC(=O)[C@H](Cc2ccc(-c3ccccc3)cc2)NC1=O [Example 1001] ({CH2CO}-FYDWL[Bip]V[NMeA][Sar]NLVSCG-NH2; thioether N-14)	920
CC(C)C[C@@H]1NC(=O)[C@H](CCN)NC(=O)[C@H](Cc2ccccc2)N(C)C(=O)[C@H](C)N(C)C(=O)[C@H](CCCNC(=N)N)NC(=O)[C@H](Cc2ccc(-c3ccccc3)cc2)NC(=O)[C@H](C(C)C)NC(=O)[C@H](Cc2c[nH]c3ccccc23)NC(=O)[C@H](CC(=O)O)NC(=O)[C@H](Cc2ccc(O)cc2)NC(=O)[C@H](Cc2cnc[nH]2)NC(=O)CSC[C@@H](C(=O)N[C@@H](C)C(N)=O)NC(=O)[C@H](CO)NC(=O)[C@H](C(C)C)NC1=O [Example 1316] ({CH2CO}-HYDWV[Bip]R[NMeA][NMeF][Dab]LVSCA-NH2; thioether N-14)	80
CC[C@H](NC(=O)[C@@H]1CSCC(=O)N[C@@H](Cc2ccccc2)C(=O)N[C@@H](Cc2ccc(O)cc2)C(=O)N[C@@H](CC(=O)O)C(=O)N[C@@H](Cc2c[nH]c3ccccc23)C(=O)N[C@@H](C(C)C)C(=O)N[C@@H](Cc2ccc(-c3ccccc3)cc2)C(=O)N[C@@H](CCCNC(=N)N)C(=O)N(C)[C@@H](C)C(=O)N(C)[C@@H](Cc2ccccc2)C(=O)N[C@@H](CCCNC(=N)N)C(=O)N[C@@H](CC(C)C)C(=O)N[C@@H](C(C)C)C(=O)N[C@@H](CO)C(=O)N1)C(N)=O [Example 1337] ({CH2CO}-FYDWV[Bip]R[NMeA][NMeF]RLVSC[Abu]-NH2; thioether N-14)	870
CC(C)[C@@H]1NC(=O)[C@H](Cc2c[nH]c3ccccc23)NC(=O)[C@H](CC(=O)O)NC(=O)[C@H](Cc2ccncc2)NC(=O)[C@H](CN)NC(=O)CSC[C@@H](C(=O)NCC(N)=O)NC(=O)[C@H](C(C)O)NC(=O)[C@H](C(C)C)NC(=O)[C@H](CC2CCCCC2)NC(=O)[C@H](CCN)NC(=O)[C@@H](C)N(C)C(=O)[C@H](CCCN)NC(=O)[C@H](CN)NC(=O)[C@H](Cc2ccc(-c3ccccc3)cc2)NC1=O (stereo partly shown) [Example 1434] ({CH2CO}-[Dap][4Pal]DWV[Bip][Dap][Orn][dNMeA][Dab][Cha]V[Thr(3ξ)]CG-NH2; thioether N-14)	100
CC(C)C[C@@H]1NC(=O)[C@H](CCCNC(=N)N)NC(=O)[C@H](Cc2ccccc2)N(C)C(=O)[C@H](C)N(C)C(=O)[C@H](CCCNC(=N)N)NC(=O)[C@H](Cc2ccc(-c3ccccc3)cc2)NC(=O)[C@H](C(C)C)NC(=O)[C@H](Cc2c[nH]c3ccccc23)NC(=O)[C@H](CC(=O)O)NC(=O)[C@H](Cc2ccc(O)cc2)NC(=O)[C@H](CC(N)=O)NC(=O)CSC[C@@H](C(=O)N[C@@H](C)C(N)=O)NC(=O)[C@H]([C@@H](C)O)NC(=O)[C@H](C(C)C)NC1=O [Example 1355] ({CH2CO}-NYDWV[Bip]R[NMeA][NMeF]RLVTCA-NH2; thioether N-14)	410
CC(C)C[C@@H]1NC(=O)[C@H](CCCNC(=N)N)NC(=O)[C@H](Cc2ccccc2)N(C)C(=O)[C@H](C)N(C)C(=O)[C@H](CCCNC(=N)N)NC(=O)[C@H](Cc2ccc(-c3ccccc3)cc2)NC(=O)[C@H](C(C)C)NC(=O)[C@H](Cc2c[nH]c3ccccc23)NC(=O)[C@H](CC(=O)O)NC(=O)[C@H](Cc2ccc(O)cc2)NC(=O)[C@H](CC(N)=O)NC(=O)CSC[C@@H](C(=O)N[C@@H](C)C(N)=O)NC(=O)[C@H](CO)NC(=O)[C@H](C(C)C)NC1=O [Example 1301] ({CH2CO}-NYDWV[Bip]R[NMeA][NMeF]RLVSCA-NH2; thioether N-14)	150
CC(C)C[C@@H]1NC(=O)[C@H](CCCNC(=N)N)NC(=O)[C@H]2CCCN2C(=O)[C@H](C)N(C)C(=O)[C@H](C(C)C)NC(=O)[C@H](Cc2ccc(-c3ccccc3)cc2)NC(=O)[C@H](C(C)C)NC(=O)[C@H](Cc2c[nH]c3ccccc23)NC(=O)[C@H](CC(=O)O)NC(=O)[C@H](Cc2ccc(O)cc2)NC(=O)[C@H](Cc2ccccc2)NC(=O)CSC[C@@H](C(=O)N[C@@H](C)C(N)=O)NC(=O)[C@H](CO)NC(=O)[C@H](C(C)C)NC1=O [Example 1075] ({CH2CO}-FYDWV[Bip]V[NMeA][dP]RLVSCA-NH2; thioether N-14)	200
CC(C)C[C@@H]1NC(=O)[C@H](CCCNC(=N)N)NC(=O)[C@H](Cc2ccccc2)N(C)C(=O)[C@H](C)N(C)C(=O)[C@H](CCCNC(=N)N)NC(=O)[C@H](Cc2ccc(-c3ccccc3)cc2)NC(=O)[C@H](C(C)C)NC(=O)[C@H](Cc2c[nH]c3ccccc23)NC(=O)[C@H](CC(=O)O)NC(=O)[C@H](Cc2ccc(O)cc2)NC(=O)[C@H](Cc2ccccc2)NC(=O)CSC[C@@H](C(=O)NCC(N)=O)NC(=O)[C@H](CCCN)NC(=O)[C@H](C(C)C)NC1=O [Example 1338] ({CH2CO}-FYDWV[Bip]R[NMeA][NMeF]RLV[Orn]CG-NH2; thioether N-14)	110
CC(C)C[C@@H]1NC(=O)[C@H](Cc2c[nH]c3ccccc23)NC(=O)[C@H](CC(=O)O)NC(=O)[C@H](Cc2ccc(O)cc2)NC(=O)[C@H](Cc2ccc(OCC(=O)O)cc2)NC(=O)CSC[C@@H](C(=O)NCC(N)=O)NC(=O)[C@H](CO)NC(=O)[C@H](C(C)C)NC(=O)[C@H](CC(C)C)NC(=O)[C@H](CC(N)=O)NC(=O)CN(C)C(=O)[C@H](C)N(C)C(=O)[C@H](C(C)C)NC(=O)[C@H](Cc2ccc(-c3ccccc3)cc2)NC1=O [Example 1137] ({CH2CO}-Y(Carboxymethyl)YDWL[Bip]V[NMeA][Sar]NLVSCG-NH2; thioether N-14)	560
CC(C)C[C@@H]1NC(=O)[C@H](CCCNC(=N)N)NC(=O)[C@H](Cc2ccccc2)N(C)C(=O)[C@H](C)N(C)C(=O)[C@H](CCCNC(=N)N)NC(=O)[C@H](Cc2ccc(-c3ccccc3)cc2)NC(=O)[C@H](C(C)C)NC(=O)[C@H](Cc2c[nH]c3ccccc23)NC(=O)[C@H](CC(=O)O)NC(=O)[C@H](Cc2ccc(O)cc2)NC(=O)[C@H](Cc2ccccc2)N(C)C(=O)CSC[C@@H](C(=O)NCC(N)=O)NC(=O)[C@H](CO)NC(=O)[C@H](C(C)C)NC1=O [Example 1250] ({CH2CO}-[NMeF]YDWV[Bip]R[NMeA][NMeF]RLVSCG-NH2; thioether N-14)	320
CC(C)C[C@@H]1NC(=O)[C@H](CCCNC(=N)N)NC(=O)[C@H](Cc2ccccc2)N(C)C(=O)[C@H](C)N(C)C(=O)[C@H](CCCNC(=N)N)NC(=O)[C@H](Cc2ccc(-c3ccccc3)cc2)NC(=O)[C@H](C(C)C)NC(=O)[C@H](Cc2c[nH]c3ccccc23)NC(=O)[C@H](CC(=O)O)NC(=O)[C@H](Cc2ccc(OCC(=O)O)cc2)NC(=O)[C@H](Cc2ccc(C(=O)O)cc2)NC(=O)CSC[C@@H](C(=O)NCC(N)=O)NC(=O)[C@H](CO)NC(=O)[C@H](C(C)C)NC1=O [Example 1300] ({CH2CO}-[Phe(4-COOH)]Y(Carboxymethyl)DWV[Bip]R[NMeA][NMeF]RLVSCG-NH2; thioether N-14)	120
CC(C)C[C@@H]1NC(=O)[C@H](CCCNC(=N)N)NC(=O)[C@H](Cc2ccccc2)N(C)C(=O)[C@H](C)N(C)C(=O)[C@H](CCCN)NC(=O)[C@H](Cc2ccc(-c3ccccc3)cc2)NC(=O)[C@H](C(C)C)NC(=O)[C@H](Cc2c[nH]c3ccccc23)NC(=O)[C@H](CC(=O)O)NC(=O)[C@H](Cc2ccc(O)cc2)NC(=O)[C@H](CCC(N)=O)NC(=O)CSC[C@@H](C(=O)NCC(N)=O)NC(=O)[C@H](CO)NC(=O)[C@H](C(C)C)NC1=O [Example 1294] ({CH2CO}-QYDWV[Bip][Orn][NMeA][NMeF]RLVSCG-NH2; thioether N-14)	140
CC(C)C[C@@H]1NC(=O)[C@H](Cc2c[nH]c3ccccc23)NC(=O)[C@H](CC(=O)O)NC(=O)[C@H](Cc2ccc(O)cc2)NC(=O)[C@H](Cc2c[nH]c3ccccc23)NC(=O)CSC[C@@H](C(=O)NCC(N)=O)NC(=O)[C@H](CO)NC(=O)[C@H](C(C)C)NC(=O)[C@H](CC(C)C)NC(=O)[C@H](CC(N)=O)NC(=O)CN(C)C(=O)[C@H](C)N(C)C(=O)[C@H](C(C)C)NC(=O)[C@H](Cc2ccc(-c3ccccc3)cc2)NC1=O [Example 1135] ({CH2CO}-WYDWL[Bip]V[NMeA][Sar]NLVSCG-NH2; thioether N-14)	550
CC(C)C[C@@H]1NC(=O)[C@H](CCCNC(=N)N)NC(=O)[C@H](Cc2ccccc2)N(C)C(=O)[C@H](C)N(C)C(=O)[C@H](CCCN)NC(=O)[C@H](Cc2ccc(-c3ccccc3)cc2)NC(=O)[C@H](C(C)C)NC(=O)[C@H](Cc2c[nH]c3ccccc23)NC(=O)[C@H](CC(=O)O)NC(=O)[C@H](Cc2ccc(O)cc2)NC(=O)[C@H](CC(N)=O)NC(=O)CSC[C@@H](C(=O)N[C@@H](C)C(N)=O)NC(=O)[C@H]([C@@H](C)O)NC(=O)[C@H](C(C)C)NC1=O [Example 1347] ({CH2CO}-NYDWV[Bip][Orn][NMeA][NMeF]RLVTCA-NH2; thioether N-14)	160
CC(C)C[C@@H]1NC(=O)[C@H](CCCNC(=N)N)NC(=O)[C@H](Cc2ccccc2)N(C)C(=O)[C@H](C)N(C)C(=O)[C@H](CCCNC(=N)N)NC(=O)[C@H](Cc2ccc(-c3ccccc3)cc2)NC(=O)[C@H](C(C)C)NC(=O)[C@H](Cc2c[nH]c3ccccc23)NC(=O)[C@H](CC(=O)O)NC(=O)[C@H](Cc2ccc(O)cc2)NC(=O)[C@H](Cc2cnc[nH]2)NC(=O)CSC[C@@H](C(=O)N[C@@H](C)C(N)=O)NC(=O)[C@H](CO)NC(=O)[C@H](C(C)C)NC1=O [Example 1302] ({CH2CO}-HYDWV[Bip]R[NMeA][NMeF]RLVSCA-NH2; thioether N-14)	350
